# Reference: paper PMC6934184, “Selective DNA-PKcs inhibition extends the therapeutic index of localized radiotherapy and chemotherapy” (The Journal of Clinical Investigation, 2019)
# Target: T1, DYRK3 (Homo sapiens, UniProt O43781)
# T1 construct: purchased Thermo Fisher Scientific (Life Technologies) SelectScreen
# Assay: SelectScreen Z'LYTE
# Type: biochemical
# Summary of the method: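 Percent values come from Thermo SelectScreen profiling of NU5455, combining activity and binding assays. CSF1R was run in Z'LYTE format at Km app ATP, and CAMK1 in Adapta format with ATP listed at 10.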
# T1 sequence (O43781 whole entry): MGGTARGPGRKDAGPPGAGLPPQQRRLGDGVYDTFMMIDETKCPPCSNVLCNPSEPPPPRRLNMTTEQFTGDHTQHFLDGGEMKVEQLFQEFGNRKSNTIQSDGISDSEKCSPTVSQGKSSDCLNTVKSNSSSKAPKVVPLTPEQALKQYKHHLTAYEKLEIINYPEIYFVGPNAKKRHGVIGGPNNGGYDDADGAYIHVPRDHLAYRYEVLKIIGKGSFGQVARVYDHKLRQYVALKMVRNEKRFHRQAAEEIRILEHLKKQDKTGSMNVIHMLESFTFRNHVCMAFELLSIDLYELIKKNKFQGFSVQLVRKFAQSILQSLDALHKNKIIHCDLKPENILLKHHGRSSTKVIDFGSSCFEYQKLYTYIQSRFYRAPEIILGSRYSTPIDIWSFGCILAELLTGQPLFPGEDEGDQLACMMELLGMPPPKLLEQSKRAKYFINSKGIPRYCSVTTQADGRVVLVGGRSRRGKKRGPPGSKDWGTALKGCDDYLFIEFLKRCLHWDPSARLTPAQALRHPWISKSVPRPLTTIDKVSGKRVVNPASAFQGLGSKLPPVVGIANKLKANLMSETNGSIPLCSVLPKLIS
structure (smiles),measurement,value
CN(C(=O)CN1CCOCC1)c1ccc2sc3c(-c4cccc5c(=O)cc(N6CC7CCC(C6)O7)oc45)cccc3c2c1 [NU5455],inhibition at 1 µM,2.6%
